Where two headings read alike, the source gives them in different places.
How the values were obtained:
[1] = MeOAMVN-initiated co-autoxidation of STY-BODIPY and egg PC liposomes (FENIX); format: biochemical; conditions: for n (radical-trapping stoichiometry): MeOAMVN-initiated co-autoxidation of STY-BODIPY and egg PC liposomes; for kinh^lip (predicted/estimated): estimated from kinh^0 and effective β2^H of egg PC liposomes
[2] = H-bond acidity (α2^H) of the RTA by 1H NMR; format: physicochemical; conditions: estimated from the 1H NMR chemical shift difference of the amine proton in DMSO-d6 and benzene-d6
[3] = system: Pfa-1 mouse embryonic fibroblasts (MEFs); assay: cells; conditions: Fibroblast
[4] = predicted from log kinh^0, α2^H and β2^H=0.69 using Eq. 4 (too reactive to be determined directly)
[5] = 5 h, read-out: Pfa-1 MEF Ferroptosis EC50, RSL3-induced cell death (150 nM for 5 hours), AquaBluer
[6] = Table 6, from survival curve of RSL3 induced ferroptosis of pfa-1 MEFS
[7] = apparent inhibition rate constant, MeOAMVN-initiated autoxidation of egg PC liposomes, determined by absorbance (STY-BODIPY 10-20 μM, 565 nm)
[8] = apparent inhibition rate constant, MeOAMVN-initiated autoxidation of egg PC liposomes, determined by fluorescence

Structure (SMILES)	α2^H [2]	EC50 [3, 5]	n (radical-trapping stoichiometry) [1]	kinh^lip [1, 8]	other results
Cc1cc(C)c2c(c1)Nc1cc(C)cc(C)c1O2 [Compound 37, 2,4,6,8-Tetramethylphenoxazine]	0.39	9.6 ± 0.2 nM	–	–	kinh^lip [1, 4]: 1500 ^f 10^5 M^−1s^−1
CC(c1ccc2c(c1)Nc1ccccc1O2)S(=O)(=O)N1CCN(C)CC1 (centres unmarked) [Compound 47, 2-(1-((4-methylpiperazin-1-yl)sulfonyl)ethyl)-10H-phenoxazine]	–	45 ± 6 nM	–	–	EC50 [3, 6]: 45 ± 6 nM
CN1CCN(S(=O)(=O)c2ccc3c(c2)Oc2ccc(C(C)(C)C)cc2N3)CC1 [Compound 61, 2-tert-Butyl-7-(4-methylpiperazin-1-ylsulfonyl)-phenoxazine]	–	15 ± 1 nM	–	–	–
c1ccc2c(c1)Nc1ccccc1[Se]2 [Compound 3, phenoselenazine, reference compound]	0.36	23 ± 2 nM	2.3 ± 0.1	–	kinh^lip [1, 7]: (56 ± 3)^e 10^5 M^−1s^−1
CC(c1ccc2c(c1)Nc1ccc(C(F)(F)F)cc1O2)S(=O)(=O)N1CCN(C)CC1 (centres unmarked) [Compound 48, 2-(1-((4-methylpiperazin-1-yl)sulfonyl)ethyl)-7-(trifluoromethyl)-10H-phenoxazine]	–	16 ± 2 nM	–	–	EC50 [3, 6]: 16 ± 2 nM
O=[N+]([O-])c1ccc2c(c1)Sc1ccccc1N2 [Compound 28, 3-nitrophenothiazine, reference compound]	0.52	140 ± 18 nM	2.0 ± 0.1	(5.3 ± 0.3) 10^5 M^−1s^−1	–
CC(C)(C)c1ccc2c(c1)Nc1cc(C(C)(C)C)ccc1O2 [Compound 33, 2,8-di-tert-butylphenoxazine]	–	7.2 ± 0.4 nM	–	–	kinh^lip [1, 4]: 730 ^f 10^5 M^−1s^−1; EC50 [3, 6]: 7.2 ± 0.4 nM
FC(F)(F)c1ccc2c(c1)Oc1ccccc1N2 [Compound 9, 3-trifluoromethylphenoxazine]	–	12 nM	3.0 ± 0.1	(42 ± 2) 10^5 M^−1s^−1	EC50 [3, 6]: 12 ± 1 nM
c1ccc2c(c1)Nc1cc3ccccc3cc1O2 [Compound 4, 12H-Benzo[b]phenoxazine]	0.49	5.2 ± 0.9 nM	2.4 ± 0.1	(101 ± 12) 10^5 M^−1s^−1	–
COc1ccc2c(c1)Oc1cc(C#N)ccc1N2 [Compound 22, 3-Methoxy-7-cyanophenoxazine]	0.55	42 ± 6 nM	3.1 ± 0.3	–	kinh^lip [1, 7]: (133 ± 15)^e 10^5 M^−1s^−1
Cc1cccc2c1Nc1c(C)cccc1S2 [Compound 31, 1,9-dimethylphenothiazine, reference compound]	0.06	35 ± 2 nM	1.7 ± 0.1	(98 ± 5) 10^5 M^−1s^−1	–
COc1ccc2c(c1)Sc1cc(OC)ccc1N2 [Compound 32, 3,7-dimethoxyphenothiazine, reference compound]	0.34	9 nM	–	–	kinh^lip [1, 4]: 840 ^f 10^5 M^−1s^−1; predicted increase in kinh^lip relative to PNX ([1]; predicted/estimated kinh^lip vs PNX): 3.8 fold
O=Cc1ccc2c(c1)Sc1ccccc1N2 [Compound 27, 3-formylphenothiazine, reference compound]	0.47	140 ± 10 nM	2.2 ± 0.1	(14 ± 1) 10^5 M^−1s^−1	–
CC(C)(C)c1ccc2c(c1)Nc1ccc(S(=O)(=O)N3CCNCC3)cc1O2 [Compound 60, 2-tert-Butyl-7-(piperazin-1-ylsulfonyl)-phenoxazine]	–	3 ± 0.2 nM	–	–	EC50 [3, 6]: 3 ± 0.2 nM
c1ccc2c(c1)Nc1cc3ccccc3cc1S2 [Compound 5, 12H-Benzo[b]phenothiazine, reference compound]	0.40	7.8 ± 0.2 nM	1.9 ± 0.1	(51 ± 3) 10^5 M^−1s^−1	–
Cc1cc(C)c2c(c1)Oc1cc(C)cc(C)c1N2 [Compound 38, 1,3,7,9-Tetramethylphenoxazine]	0.10	7.6 ± 0.2 nM	–	–	kinh^lip [1, 4]: 1500 ^f 10^5 M^−1s^−1
Cc1cccc2c1Nc1c(C)cccc1O2 [Compound 36, 1,9-Dimethylphenoxazine]	0.12	14 nM	–	–	kinh^lip [1, 4]: 1150 ^f 10^5 M^−1s^−1

Structure (SMILES)	α2^H [2]	EC50 [3, 5]	n (radical-trapping stoichiometry) [1]	kinh^lip [1, 8]	other results
COc1ccc2c(c1)Oc1cc(OC)ccc1N2 [Compound 40, 3,7-dimethoxyphenoxazine]	0.40	11 nM	–	–	kinh^lip (predicted/estimated) [1]: 6e+06 M⁻¹ s⁻¹; kinh^lip [1, 4]: 6530 ^f 10^5 M^−1s^−1
Cc1ccc2c(c1)Oc1cc(C#N)ccc1N2 [Compound 21, 3-Methyl-7-cyanophenoxazine]	0.55	22 ± 5 nM	3.5 ± 0.1	(44 ± 6) 10^5 M^−1s^−1	–
N#Cc1ccc2c(c1)Oc1cc([N+](=O)[O-])ccc1N2 [Compound 23, 3-cyano-7-nitrophenoxazine]	0.69	455 ± 19 nM	–	–	kinh^lip [1, 7]: (1.6 ± 0.1)^e 10^5 M^−1s^−1
N#Cc1ccc2c(c1)Oc1cc(C=O)ccc1N2 [Compound 14, 3-Cyano-7-formylphenoxazine]	0.64	–	–	(7.1 ± 0.1) 10^5 M^−1s^−1	EC50 ([3]; 5 h, read-out: Pfa-1 MEF Ferroptosis EC50): 240 ± 16 nM
CC(C)(C)c1ccc2c(c1)Oc1cc(C(C)(C)C)ccc1N2 [Compound 34, 3,7-di-tert-butylphenoxazine]	–	7.4 ± 0.1 nM	–	–	kinh^lip [1, 4]: 1280 ^f 10^5 M^−1s^−1; EC50 [3, 6]: 7.4 ± 0.1 nM
CCN(CC)S(=O)(=O)c1ccc2c(c1)Oc1ccccc1N2 [Compound 65, N,N-diethyl-3-sulfonamidephenoxazine]	–	31 ± 1 nM	–	–	–
Cc1ccc2c(c1)Oc1cc([N+](=O)[O-])ccc1N2 [Compound 16, 3-Methyl-7-nitrophenoxazine]	0.60	15 ± 1 nM	3.8 ± 0.3	–	kinh^lip [1, 7]: (23 ± 2)^e 10^5 M^−1s^−1
FC(F)(F)c1ccc2c(c1)Sc1ccccc1N2 [Compound 26, 3-trifluoromethylphenothiazine, reference compound]	0.45	41 ± 5 nM	2.6 ± 0.1	(9.8 ± 0.5) 10^5 M^−1s^−1	–
N#Cc1ccc2c(c1)Oc1ccccc1N2 [Compound 20, 3-cyanophenoxazine]	0.56	58 ± 1 nM	3.6 ± 0.1	(27 ± 2) 10^5 M^−1s^−1	–
O=Cc1ccc2c(c1)Oc1cc(C=O)ccc1N2 [Compound 13, 3,7-Diformylphenoxazine]	0.63	340 ± 49 nM	3.2 ± 0.1	(10 ± 1) 10^5 M^−1s^−1	–
CCN(CC)c1ccc2c(c1)Oc1cc([N+](=O)[O-])ccc1N2 [Compound 18, N,N-diethyl-3-amine-7-nitrophenoxazine]	0.58	14 ± 2 nM	2.4 ± 0.4	–	kinh^lip [1, 7]: (177 ± 37)^e 10^5 M^−1s^−1
Cc1c(C)c2c(c(C)c1O)CCC(C)(C)O2 [PMC, 2,2,5,7,8-Pentamethyl-6-chromanol, reference compound]	0.38	360 ± 30 nM	(2)	(29 ± 2) 10^5 M^−1s^−1	kinh^lip (predicted/estimated) [1]: 35000 M⁻¹ s⁻¹; kinh^lip ([1]; measured in MeOAMVN-initiated autoxidation of egg PC liposomes): 29000 M⁻¹ s⁻¹
O=[N+]([O-])c1ccc2c(c1)Oc1cc([N+](=O)[O-])ccc1N2 [Compound 19, 3,7-Dinitrophenoxazine]	0.72	405 nM	–	–	kinh^lip [1, 7]: (1.3 ± 0.1)^e 10^5 M^−1s^−1
CC(c1ccc2c(c1)Nc1ccccc1O2)S(=O)(=O)NCCN(C)C (centres unmarked) [Compound 43, N-(2-(dimethylamino)ethyl)-1-(10H-phenoxazin-2-yl)ethanesulfonamide]	–	15 ± 1 nM	–	–	EC50 [3, 6]: 15 ± 1 nM
O=[N+]([O-])c1ccc2c(c1)Oc1ccccc1N2 [Compound 15, 3-nitrophenoxazine]	0.62	43 nM	2.2 ± 0.1	–	kinh^lip [1, 7]: (10 ± 1)^e 10^5 M^−1s^−1
CC(c1ccc2c(c1)Nc1ccccc1O2)S(=O)(=O)N1CCNCC1 (centres unmarked) [Compound 45, 2-(1-(piperazin-1-ylsulfonyl)ethyl)-10H-phenoxazine]	–	13 ± 1 nM	–	–	EC50 [3, 6]: 13 ± 1 nM
